Measured values from patent US11642322B2, “Food supplement and composition comprising choline butyrate salt and/or butyrylcholine” (A[…], priority 2016, dated 2023).
Like-named read-outs stand apart in the source and are kept apart here.

Legend:
[1] = 1100 mg per kilogram feed, first day of life till day 39
Source text: 396 days old ROSS® 308 meat chickens were used for this test. The test lasted from the first day of life of the chickens till day 39. […] The uncertainty of the measurement value is lower than 0.05.
(§1) The design of the test was for the rest similar to the one described above.

villi = conditions: 1100 mg per kilogram feed; for average length of the villi: 5 chickens
Procedure: 20 days old ROSS® 308 meat chickens were used for this test. The test lasted from the first day of life of the chickens till day 39. […] The average length of the villi of 5 chickens was measured for each group after 14 days. […] The average length of the villi of 5 chickens was measured for each group after 39 days. […] The uncertainty of the measurement value is lower than 0.05.
as §1

coccidiose = assay: Influence on Coccidiose infection (chickens in a shed infected with coccidiose); conditions: 1100 mg per kilogram feed, till day 39
Source text: 496 days old ROSS® 308 meat chickens were used for this test and were placed in a shed that was infected with coccidiose. The test lasted from the first day of life of the chickens till day 39. […] The uncertainty of the measurement value is lower than 0.05.

Procedure for CD3+ T-cells: 20 days old ROSS® 308 meat chickens were used for this test. The test lasted from the first day of life of the chickens till day 14. […] On day 14, the average amount of CD3+ T-cells was determined for both groups.

SMILES | change of the surface percentage for CD3+ compared to the control group (in words) (CD3+ T-cells; similar design, added to the feed) | decrease of the FCR value with respect to the control group [1] | increase of the length of the villi compared to the control group (villi; after 39 days) | increase of the surface percentage for CD3+ versus control group (CD3+ T-cells; day 14, 1100 mg per kilogram feed) | surface percentage for CD3+ (CD3+ T-cells; day 14, test group, 1100 mg per kilogram feed) | FCR value ([1]; test group) | animals that died, supplemented group versus control (coccidiose) | decrease of the FCR value versus control group (coccidiose) | FCR value (coccidiose; test group) | increase of the length of the villi compared to the control group (villi; after 14 days) | average length of the villi (villi; after 14 days) | average length of the villi (villi; after 39 days)
CCCC(=O)OCC[N+](C)(C)C [butyrylcholine, (N,N,N-trimethyl)-2-ammoniumethylbutanoate] | increase | 5% | 21% | – | – | – | – | – | – | – | – | –
CCCC(=O)[O-].C[N+](C)(C)CCO [choline butyrate] | – | 5% | 21% | 27% | 23 surface percentage | 1.57 | more animals died | 13% | 2.22 | 7% | 779 μm | 1231 μm
